# Measurements from PMC10765884, “MC180295 is a highly potent and selective CDK9 inhibitor with preclinical in vitro and in vivo efficacy in cancer” (Clinical Epigenetics, 2024).
# Like-named read-outs stand apart in the source and are kept apart here.
# What was measured:
# [1] = system: 46 cell lines representing 6 different malignancies; assay: Growth inhibition in a panel of cancer cell lines; format: cell-based; details: 6 malignancies, read-out: median IC50
# Experimental: (§1) The live-cell assay for GFP reactivation in YB5 cells was done as previously described. Cells were treated with a single dose of drug 24 h after seeding at low density, and GFP fluorescence measured in a Millipore Guava flow cytometer (EMD, Millipore) instrument, or by imaging in a Cytation instrument (Agilent). Cancer cell lines (listed in Additional file 1: Fig. S1A) were obtained from ATCC or the Temple/Fox Chase Cellular Repository and cultured in the recommended medium. To measure growth inhibition, cells were seeded in 96-well plates at 40% confluency. Fresh medium was changed the next day and drugs were added directly. Drug-free fresh medium was changed on the fourth day. The cells were collected on day 5 by trypsin, suspended in medium, mixed with trypan blue (Thermo Fisher Scientific) (1:1 ratio), and counted using a LUNA II automated cell counter. Each sample was counted at least three times, and average numbers used for the analysis. Each treatment condition was performed in biological triplicates.
# Pharmacokinetics in mice = format: in vivo; details: mouse, plasma
# Experimental: Fig. 1 MC180295 enzymatic/growth inhibition and pharmacokinetics. A In vitro activity (IC50 values) of MC180295 against a panel of CDKs. B MC180295 IC50 values against 46 cell lines from 6 different cancer types. C Pharmacokinetic analyses after oral or IV administration of low-dose (1 mg/kg IV or 2.5 mg/kg oral) MC180295 to mice. D Pharmacokinetic analyses after IP administration of 10 mg/kg MC180295 to mice.
# We next studied the pharmacokinetics (PK) of MC180295.
# CaCO2 = assay: Growth inhibition (cell counting, day 5); format: cell-based; details: Homo sapiens, Caco-2; Colon
# Experimental: as §1
# DU145 = assay: Growth inhibition (cell counting, day 5); format: cell-based; details: Homo sapiens, DU-145; Prostate
# Experimental: as §1
# MV4-11 = assay: Growth inhibition (cell counting, day 5); format: cell-based; details: Homo sapiens, Leukemia
# Experimental: as §1
# HTB126 = assay: Growth inhibition (cell counting, day 5); format: cell-based; details: Breast
# Experimental: as §1
# KG-1a = assay: Growth inhibition (cell counting, day 5); format: cell-based; details: Homo sapiens, Leukemia
# Experimental: as §1
# J-Tag = assay: Growth inhibition (cell counting, day 5); format: cell-based; details: Leukemia
# Experimental: as §1
# KG-1 = assay: Growth inhibition (cell counting, day 5); format: cell-based; details: Homo sapiens, Leukemia
# Experimental: as §1
# BT549 = assay: Growth inhibition (cell counting, day 5); format: cell-based; details: Homo sapiens, BT-549; Breast
# Experimental: as §1
# MOLM-13 = assay: Growth inhibition (cell counting, day 5); format: cell-based; details: Homo sapiens, Leukemia
# Experimental: as §1
# sk-mel28 = assay: Growth inhibition (cell counting, day 5); format: cell-based; details: Homo sapiens, SK-MEL-28; Melanoma
# Experimental: as §1
# Cama-1 = assay: Growth inhibition (cell counting, day 5); format: cell-based; details: Homo sapiens, Breast
# Experimental: as §1
# CT26.CL25 = assay: Growth inhibition (cell counting, day 5); format: cell-based; details: Mus musculus; Colon
# Experimental: as §1
# WM983B = assay: Growth inhibition (cell counting, day 5); format: cell-based; details: Melanoma
# Experimental: as §1
# HCC2218 = assay: Growth inhibition (cell counting, day 5); format: cell-based; details: Homo sapiens, Breast
# Experimental: as §1
# HL-60 = assay: Growth inhibition (cell counting, day 5); format: cell-based; details: Homo sapiens, Leukemia
# Experimental: as §1
# SW480 = assay: Growth inhibition (cell counting, day 5); format: cell-based; details: Homo sapiens, Colon
# Experimental: as §1
# Raji = assay: Growth inhibition (cell counting, day 5); format: cell-based; details: Homo sapiens, Leukemia
# Experimental: as §1
# WM88 = assay: Growth inhibition (cell counting, day 5); format: cell-based; details: Melanoma
# Experimental: as §1
# PC3 = assay: Growth inhibition (cell counting, day 5); format: cell-based; details: Homo sapiens, PC-3; Prostate
# Experimental: as §1
# HT29 = assay: Growth inhibition (cell counting, day 5); format: cell-based; details: Homo sapiens, HT-29; Colon
# Experimental: as §1
# UC6 = assay: Growth inhibition (cell counting, day 5); format: cell-based; details: Bladder
# Experimental: as §1
# LnCap = assay: Growth inhibition (cell counting, day 5); format: cell-based; details: Homo sapiens, Prostate
# Experimental: as §1
# WM3918 = assay: Growth inhibition (cell counting, day 5); format: cell-based; details: Melanoma
# Experimental: as §1
# A375 = assay: Growth inhibition (cell counting, day 5); format: cell-based; details: Homo sapiens, A-375; Melanoma
# Experimental: as §1
# MCF7 = assay: Growth inhibition (cell counting, day 5); format: cell-based; details: Homo sapiens, Breast
# Experimental: as §1
# LOVO = assay: Growth inhibition (cell counting, day 5); format: cell-based; details: Homo sapiens, Colon
# Experimental: as §1
# HS936T = assay: Growth inhibition (cell counting, day 5); format: cell-based; details: Melanoma
# Experimental: as §1
# Jurkat = assay: Growth inhibition (cell counting, day 5); format: cell-based; details: Homo sapiens, Leukemia
# Experimental: as §1
# UC16 = assay: Growth inhibition (cell counting, day 5); format: cell-based; details: Bladder
# Experimental: as §1
compound,measurement,setting,value
Nc1nc(N[C@H]2C[C@@H]3CC[C@H]2C3)sc1C(=O)c1ccccc1[N+](=O)[O-] (relative stereo) [MC180295],IC50,[1],0.171 µM
same,AUC(0-t),Pharmacokinetics in mice; IP 10 mg/kg,1.37 µg·h/mL
same,Cmax,Pharmacokinetics in mice; IP 10 mg/kg,1.07 µg/mL
same,Tmax,Pharmacokinetics in mice; IP 10 mg/kg,0.17 h
same,AUC(0-inf),"Pharmacokinetics in mice; IP 10 mg/kg, read-out: AUC 0-inf_obs",3.84 µg·h/mL
same,AUC,Pharmacokinetics in mice; IV - 1mg/kg,0.11 µg·h/mL
same,Cmax,Pharmacokinetics in mice; IV - 1mg/kg,0.21 µg/mL
same,clearance,Pharmacokinetics in mice; IV - 1mg/kg,3.67 mL/min
same,Vd,"Pharmacokinetics in mice; IV - 1mg/kg, read-out: Vss",0.19 L
same,AUC,Pharmacokinetics in mice; Oral - 2.5mg/kg,0.071 µg·h/mL
same,Cmax,Pharmacokinetics in mice; Oral - 2.5mg/kg,0.096 µg/mL
same,Tmax,Pharmacokinetics in mice; Oral - 2.5mg/kg,0.5 h
same,bioavailability,"Pharmacokinetics in mice; Oral - 2.5mg/kg vs IV - 1mg/kg, as fraction",26%
same,half-life,"Pharmacokinetics in mice; ip, 10 mg/kg, IP 10 mg/kg, read-out: T1/2 (converted)",15.8 h
same,half-life,"Pharmacokinetics in mice; ip, 10 mg/kg, IP at 10 mg/kg, read-out: half-life (converted)",15.8 h
same,half-life,"Pharmacokinetics in mice; iv, 1 mg/kg, IV - 1mg/kg, read-out: T1/2 (converted)",0.86 h
same,half-life,"Pharmacokinetics in mice; iv, 1 mg/kg, IV dose of 1 mg/kg, read-out: half-life (converted)",0.86 h
same,bioavailability,Pharmacokinetics in mice; oral dose of 2.5 mg/kg,26%
same,half-life,"Pharmacokinetics in mice; po, 2.5 mg/kg, Oral - 2.5mg/kg, read-out: T1/2 (converted)",1.32 h
same,half-life,"Pharmacokinetics in mice; po, 2.5 mg/kg, oral dose of 2.5 mg/kg, read-out: half-life (converted)",1.3 h
same,IC50,CaCO2,0.107 µM
same,IC50,DU145,0.211 µM
same,IC50,MV4-11,0.028 µM
same,IC50,HTB126,0.092 µM
same,IC50,KG-1a,0.0823 µM
same,IC50,J-Tag,0.112 µM
same,IC50,KG-1,0.148 µM
same,IC50,BT549,0.29 µM
same,IC50,MOLM-13,0.044 µM
same,IC50,sk-mel28,0.422 µM
same,IC50,Cama-1,0.624 µM
same,IC50,CT26.CL25,0.166 µM
same,IC50,WM983B,0.25 µM
same,IC50,HCC2218,0.0706 µM
same,IC50,HL-60,0.121 µM
same,IC50,SW480,0.154 µM
same,IC50,Raji,0.137 µM
same,IC50,WM88,0.103 µM
same,IC50,PC3,0.213 µM
same,IC50,HT29,0.0756 µM
same,IC50,UC6,0.143 µM
same,IC50,LnCap,0.109 µM
same,IC50,WM3918,0.15 µM
same,IC50,A375,0.189 µM
same,IC50,MCF7,0.177 µM
same,IC50,LOVO,0.199 µM
same,IC50,HS936T,0.391 µM
same,IC50,Jurkat,0.141 µM
same,IC50,UC16,0.077 µM
